According to PMC11555678, “Improved Broad Spectrum Antifungal Drug Synergies with Cryptomycin, a Cdc50-Inspired Antifungal Peptide” (ACS Infectious Diseases, 2024):
Values after ≈ are worked out from the molar mass of the structure shown. Read-outs that look alike come from different tables or passages of the source.

Experiments:
C. auris B11245 = experiment: microbe, parasite or virus in culture; assay type: cell-based, Candida auris; conditions: Candidozyma auris, B11245; compound alone; RPMI1640, 37 °C, 48 h; * = paradoxical growth observed (CAS); read-out: MIC
Protocol: (§1) All microdilution assays with fungi were carried out in accordance with CLSI protocols from M27 for yeasts and M38 for filamentous fungi, respectively, unless otherwise specified.[64],[65] Briefly, 96-well plates were charged with RPMI1640 media, with operating volume in the first column, 200 μL, and half operating volume, 100 μL, in the remaining wells. Drug stock solution in DMSO was aliquoted into the first well in each row. Half of the volume in the dosed well was serially diluted 2-fold until column 11. Column 11 was used as the negative growth control, and column 12 was used as the positive growth control. ON yeast cultures in YPD were washed twice in DD-H2O, resuspended in PBS, and adjusted to 5000 cfu/mL in RPMI. The 96-well plate was inoculated with 100 μL aliquots of cell suspension per well. Plates were incubated at 37 °C for 2 days.

C. glabrata 2001 = assay type: cell-based, Candida glabrata; conditions: RPMI1640, 37 °C, 48 h
Protocol: as §1
(§2) To assess drug synergy, the initial media charged to the plate contained the peptide at twice the final operating concentration; the remaining processing steps were identical to the MIC experiment. Upon addition of 100 μL of inoculant, the final operating concentration was achieved. Control MIC plates were prepared alongside drug synergy plates to account for the day-to-day variability in any individual MIC. FIC index is computed using eq 1. All MIC assays and drug synergy assays were completed with two technical replicates per 96-well plate and a minimum of two biological replicates per drug combination. If a difference in MIC between the two technical replicates on the plate were observed, only the higher concentration was reported as the MIC to reduce the possibility of type 1 error (false positive) [drawing 1] 1

Cn MRL862 = assay type: cell-based, Cryptococcus neoformans; conditions: RPMI1640, 37 °C, 48 h
Protocol: as §1, §2

Cg FKS1 S629P = experiment: Drug synergy (MIC in peptide-supplemented media); assay type: cell-based, Candida glabrata; conditions: RPMI1640, 37 °C, 48 h
Protocol: as §1, §2

Cg FKS2 S663P = experiment: Drug synergy (MIC in peptide-supplemented media); assay type: cell-based, Candida glabrata; conditions: RPMI1640, 37 °C, 48 h
Protocol: as §1, §2

Structure (SMILES): C[C@@H]1[C@H](O)[C@@H](C)/C=C/C=C/C=C/C=C/C=C/C=C/C=C/[C@H](O[C@@H]2O[C@H](C)[C@@H](O)[C@H](N)[C@@H]2O)C[C@@H]2O[C@](O)(C[C@@H](O)C[C@@H](O)[C@H](O)CC[C@@H](O)C[C@@H](O)CC(=O)O[C@H]1C)C[C@H](O)[C@H]2C(=O)O [AMB, amphotericin B]
- MIC (C. auris B11245): 1 µg/mL (≈ 1.08 µM)
- MIC of antifungal in combination with KKOO (C. glabrata 2001; +0 μg/mL KKOO (control)): 1 µg/mL
- MIC of antifungal in combination with KKOO-NH2 (C. glabrata 2001; +0 μg/mL KKOO-NH2 (control)): 1 µg/mL
- MIC of antifungal in combination with KKOO-NH2 (C. glabrata 2001; +1 μg/mL KKOO-NH2): 0.5 µg/mL
- MIC of antifungal in combination with KKOO (C. glabrata 2001; +1 μg/mL KKOO): 0.5 µg/mL
- MIC of antifungal in combination with KKOO-NH2 (C. glabrata 2001; +2 μg/mL KKOO-NH2): 0.25 µg/mL
- MIC of antifungal in combination with KKOO (C. glabrata 2001; +2 μg/mL KKOO): 0.25 µg/mL
- MIC of antifungal in combination with KKOO-NH2 (C. glabrata 2001; +4 μg/mL KKOO-NH2): 0.25 µg/mL
- MIC of antifungal in combination with KKOO (C. glabrata 2001; +4 μg/mL KKOO): 0.25 µg/mL
- MIC of antifungal in combination with KKOO (C. glabrata 2001; +8 μg/mL KKOO): 0.125 µg/mL
- MIC of antifungal in combination with KKOO (Cn MRL862; +0 μg/mL KKOO (control)): 0.25 µg/mL
- MIC of antifungal in combination with KKOO-NH2 (Cn MRL862; +0 μg/mL KKOO-NH2 (control)): 0.25 µg/mL
- MIC of antifungal in combination with KKOO-NH2 (Cn MRL862; +1 μg/mL KKOO-NH2): 0.125 µg/mL
- MIC of antifungal in combination with KKOO (Cn MRL862; +1 μg/mL KKOO): 0.125 µg/mL
- MIC of antifungal in combination with KKOO-NH2 (Cn MRL862; +2 μg/mL KKOO-NH2): 0.031 µg/mL
- MIC of antifungal in combination with KKOO (Cn MRL862; +2 μg/mL KKOO): 0.031 µg/mL
- MIC of antifungal in combination with KKOO-NH2 (Cn MRL862; +4 μg/mL KKOO-NH2): 0.016 µg/mL
- MIC of antifungal in combination with KKOO (Cn MRL862; +4 μg/mL KKOO): 0.016 µg/mL
- MIC of antifungal in combination with KKOO (Cg FKS1 S629P; +0 μg/mL KKOO (control)): 1 µg/mL
- MIC of antifungal in combination with KKOO-NH2 (Cg FKS1 S629P; +0 μg/mL KKOO-NH2 (control)): 0.5 µg/mL
- MIC of antifungal in combination with KKOO-NH2 (Cg FKS1 S629P; +1 μg/mL KKOO-NH2): 0.25 µg/mL
- MIC of antifungal in combination with KKOO (Cg FKS1 S629P; +1 μg/mL KKOO): 0.5 µg/mL
- MIC of antifungal in combination with KKOO-NH2 (Cg FKS1 S629P; +2 μg/mL KKOO-NH2): 0.125 µg/mL
- MIC of antifungal in combination with KKOO (Cg FKS1 S629P; +2 μg/mL KKOO): 0.25 µg/mL
- MIC of antifungal in combination with KKOO-NH2 (Cg FKS1 S629P; +4 μg/mL KKOO-NH2): 0.062 µg/mL
- MIC of antifungal in combination with KKOO (Cg FKS1 S629P; +4 μg/mL KKOO): 0.25 µg/mL
- MIC of antifungal in combination with KKOO (Cg FKS2 S663P; +0 μg/mL KKOO (control)): 0.25 µg/mL
- MIC of antifungal in combination with KKOO-NH2 (Cg FKS2 S663P; +0 μg/mL KKOO-NH2 (control)): 0.25 µg/mL
- MIC of antifungal in combination with KKOO-NH2 (Cg FKS2 S663P; +1 μg/mL KKOO-NH2): 0.25 µg/mL
- MIC of antifungal in combination with KKOO (Cg FKS2 S663P; +1 μg/mL KKOO): 0.25 µg/mL
- MIC of antifungal in combination with KKOO-NH2 (Cg FKS2 S663P; +2 μg/mL KKOO-NH2): 0.062 µg/mL
- MIC of antifungal in combination with KKOO (Cg FKS2 S663P; +2 μg/mL KKOO): 0.125 µg/mL
- MIC of antifungal in combination with KKOO-NH2 (Cg FKS2 S663P; +4 μg/mL KKOO-NH2): 0.016 µg/mL
- MIC of antifungal in combination with KKOO (Cg FKS2 S663P; +4 μg/mL KKOO): 0.031 µg/mL
